The experiment deals with Serine/threonine-protein kinase PLK1 (Homo sapiens) (UniProt P53350). Kind of experiment: PLK1 polo-box domain peptide-binding inhibitors, SAR follow-up, biochemical, fluorescence polarization, purchased analogs, concentration response (AID 1083). As to conditions: Plk1 PBD peptide binding. On the technique in general: In fluorescence polarisation assays a small probe gives low polarisation when free and higher when bound to something large.

Structures are written as SMILES. Values joined by “and” are separate entries in the source; they are usually repeats but may differ in a detail not shown here. Equal entries are not always repeated. Active and inactive are the calls of the source. How the calls were made is not given here.

Sequence of Serine/threonine-protein kinase PLK1 (Homo sapiens) (P53350 whole entry, looked up, the tested form may be a part): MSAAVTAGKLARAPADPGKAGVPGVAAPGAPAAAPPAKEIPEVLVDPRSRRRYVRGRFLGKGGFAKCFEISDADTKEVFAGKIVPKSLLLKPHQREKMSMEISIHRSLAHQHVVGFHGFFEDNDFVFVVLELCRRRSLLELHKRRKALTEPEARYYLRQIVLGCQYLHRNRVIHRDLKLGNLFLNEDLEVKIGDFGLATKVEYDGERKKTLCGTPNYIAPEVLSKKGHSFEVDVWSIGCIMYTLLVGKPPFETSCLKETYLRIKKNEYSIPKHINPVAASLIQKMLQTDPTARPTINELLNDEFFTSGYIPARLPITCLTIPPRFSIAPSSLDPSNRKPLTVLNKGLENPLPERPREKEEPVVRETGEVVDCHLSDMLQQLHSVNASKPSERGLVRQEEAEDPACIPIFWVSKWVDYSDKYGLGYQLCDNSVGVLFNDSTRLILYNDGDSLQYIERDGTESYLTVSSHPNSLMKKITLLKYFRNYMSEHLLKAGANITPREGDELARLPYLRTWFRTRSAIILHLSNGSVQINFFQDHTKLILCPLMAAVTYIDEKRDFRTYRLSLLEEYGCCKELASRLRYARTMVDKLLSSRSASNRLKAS

As to `CCOC(=O)c1ccc(NC(=O)C2Cc3ccccc3C(=O)O2)cc1` (configuration not stated), the IC50 is > 50 µM (inactive). The figure for `CCOC(=O)c1ccc(N=Cc2c(O)n(CC)c(=O)[nH]c2=O)cc1` is > 50 µM (inactive); for `CCOC(=O)c1ccc(NC(=O)C2C3C=CC(C3)C2C(=O)O)cc1` (configuration not stated) it is > 50 µM (inactive); for `Cn1c(=O)[nH]c2nnc(-c3ccccc3)nc2c1=O` it is > 50 µM (inactive). `COc1ccc(N(CN2C(=O)c3ccccc3C2=O)C(C)=O)cc1`: the IC50 was > 50 µM (inactive). Take `CC(=O)N(CN1C(=O)c2ccc(Br)cc2C1=O)c1ccc(Cl)cc1`: the IC50 is > 50 µM (inactive). The figure for `CC(=O)Oc1ccccc1N(/C=C1/Sc2ccccc2C1=O)C(C)=O` is > 50 µM (inactive). For the molecule `CC(=O)N(CN1C(=O)c2ccccc2C1=O)c1ccc(C)c(Cl)c1`, the IC50 is > 50 µM (inactive). Next, `CCCCCOC(=O)c1ccc(NC(=O)c2ccc([N+](=O)[O-])cc2)cc1`: > 50 µM (inactive); `COc1ccccc1N(/N=C1\Sc2ccccc2C1=O)C(C)=O`: 13.3 µM.

With `O=C(COC(=O)c1ccc(NC(=O)c2ccc(Cl)cc2)cc1)c1ccccc1`, the IC50 is > 50 µM (inactive). Consider `CCn1c(N/C(O)=C/C(O)(C(F)(F)F)C(F)(F)F)nc2ccccc21`, for which the IC50 is > 50 µM (inactive).

Consider `CCCCCCC(=O)N(CN1C(=O)c2ccccc2C1=O)c1ccccc1`, for which the IC50 is > 50 µM (inactive). As for `CCOC(=O)c1ccc(NC(=O)C2CCC(C(C)(C)C)CC2)cc1` (configuration not stated), the IC50 was > 50 µM (inactive).

In the case of `CCN(CC)CCOC(=O)c1ccc(N=Cc2c(O)n(C)c(=O)[nH]c2=O)cc1`, the IC50 was > 50 µM (inactive). Turning to `O=C1NC(=O)C(=Cc2ccccc2OCCOc2ccccc2)C(=O)N1`, the IC50 was > 50 µM (inactive). The figure for `O=C1NC(=O)C(=Cc2cccn2-c2ccc([N+](=O)[O-])cc2)C(=O)N1` is > 50 µM (inactive). Next, `Cn1c(=O)[nH]c2nnc(-c3ccc(F)cc3)nc2c1=O`: > 50 µM (inactive); `CCOC(=O)c1ccc(NC(=O)C2C3C=CC(C3)C2(C)C(=O)O)cc1` (configuration not stated): > 50 µM (inactive); `CCOC(=O)c1ccc(N=Cc2c(O)n(-c3ccc(OCC)cc3)c(=O)[nH]c2=O)cc1`: > 50 µM (inactive). The figure for `CCOC(=O)c1ccc(NC(=O)c2ccc(Cl)c(Cl)c2)cc1` is > 50 µM (inactive). Regarding `CCn1nc(-c2ccc(C(=O)OC)cc2)nc2c(=O)n(C)c(=O)nc1-2`, the half-inhibitory concentration (IC50) was 0.488 µM. For the molecule `CC(=O)N(CN1C(=O)c2ccc([N+](=O)[O-])cc2C1=O)c1ccc(Oc2ccccc2)cc1`, the IC50 was > 50 µM (inactive). In the case of `CCOC(=O)c1ccc(NC(=O)C2CCCCC2C(=O)O)cc1` (configuration not stated), the IC50 is > 50 µM (inactive).

Regarding `Cn1nc(-c2ccc([N+](=O)[O-])cc2)nc2c(=O)n(C)c(=O)nc1-2`, the 50% inhibitory concentration (IC50) was 0.375 µM.

With `CC(=O)N(CN1C(=O)c2cc(Cl)c(Cl)cc2C1=O)c1ccc(C)c(Cl)c1`, the IC50 is > 50 µM (inactive).

`CCOC(=O)c1ccc(N=Cc2c(O)n(-c3cccc(OC)c3)c(=O)[nH]c2=O)cc1`: the IC50 is > 50 µM (inactive). As for `CCOC(=O)c1ccc(NC(=O)C2COc3ccccc3O2)cc1` (configuration not stated), the IC50 was > 50 µM (inactive). As for `CCOC(=O)c1ccc(NC(=O)c2cc(=O)[nH]c3ccccc23)cc1`, the IC50 is > 50 µM (inactive). On to `COc1cc(C=C2C(=O)NC(=O)NC2=O)ccc1OCc1ccc(Cl)cc1Cl`, for which the IC50 is > 50 µM (inactive). On to `CC(=O)N(CN1C(=O)c2ccccc2C1=O)c1ccccc1C`, for which the IC50 was > 50 µM (inactive). With `COc1ccccc1N(CN1C(=O)c2ccc([N+](=O)[O-])cc2C1=O)C(C)=O`, the IC50 is > 50 µM (inactive). On to `CCOC(=O)c1ccc(N=Cc2c(O)n(Cc3cccs3)c(=O)[nH]c2=O)cc1`, for which the IC50 is > 50 µM (inactive). Next, `CN(C)c1ccc(-c2nnc3c(n2)c(=O)n(C)c(=O)n3C)cc1`: > 50 µM (inactive). In the case of `CC(=O)N(CN1C(=O)c2ccccc2C1=O)c1ccc(Br)cc1`, the IC50 was > 50 µM (inactive). In the case of `CCOC(=O)c1ccc(NC(=O)C2CC(=O)NC(=NC)S2)cc1` (configuration not stated), the IC50 is > 50 µM (inactive). Next, `COc1ccccc1N(/C=C1\Sc2ccccc2C1=O)C(C)=O`: > 50 µM (inactive); `Cn1c(=O)[nH]c2nnc(-c3ccc([N+](=O)[O-])cc3)nc2c1=O`: > 50 µM (inactive); `CC(=O)N(CN1C(=O)c2ccccc2C1=O)c1ccc2ccccc2c1`: > 50 µM (inactive). On to `CCOC(=O)c1ccc(NC(=O)C2C3CCC(C3)C2C(=O)O)cc1` (configuration not stated), for which the IC50 was > 50 µM (inactive). Consider `CC(OC(=O)c1ccc(NC(=O)c2ccc(Br)cc2)cc1)C(=O)c1ccccc1` (configuration not stated), for which the IC50 was > 50 µM (inactive). As to `CC(=O)N(/C=C1\Sc2ccccc2C1=O)c1cc(C(F)(F)F)ccc1Cl`, the IC50 was > 50 µM (inactive). Take `CC(=O)N(CN1C(=O)c2ccccc2C1=O)c1ccc(Oc2ccccc2)cc1`: the IC50 was > 50 µM (inactive). Consider `Cc1ccc(N(CN2C(=O)c3ccc([N+](=O)[O-])cc3C2=O)C(=O)C(c2ccccc2)c2ccccc2)cc1`, for which the IC50 was > 50 µM (inactive). Turning to `COc1ccc(-c2nc3c(=O)n(C)c(=O)nc-3n(C)n2)cc1OC`, the IC50 was 0.295 µM. With `Cn1c(=O)c2nc(-c3ccccc3)c(=O)n(C)c2n(C)c1=O`, the IC50 was > 50 µM (inactive). For the molecule `CC(=O)N(/C=C1\Sc2ccccc2C1=O)c1ccc(C)c(C)c1`, the IC50 was > 50 µM (inactive). With `COc1ccccc1N(CN1C(=O)c2ccccc2C1=O)C(C)=O`, the IC50 is > 50 µM (inactive).

Turning to `Cn1c(=O)c2nc(-c3ccccc3)c(=O)[nH]c2n(C)c1=O`, the IC50 is > 50 µM (inactive). For the molecule `CCOC(=O)c1ccc(NC(=O)c2ccc3nc(N)sc3c2)cc1`, the IC50 was > 50 µM (inactive). The figure for `CC(=O)N(CN1C(=O)c2ccccc2C1=O)c1cc(C)ccc1C` is > 50 µM (inactive).

In the case of `CCOC(=O)c1ccc(NC(=O)c2cc(C)cc(C)c2)cc1`, the IC50 was > 50 µM (inactive).

As for `CCOC(=O)c1ccc(NC(=O)C2Oc3ccccc3OC2C)cc1` (configuration not stated), the IC50 was > 50 µM (inactive). In the case of `Cn1c(=O)[nH]c2nnc(-c3ccc(C(F)(F)F)cc3)nc2c1=O`, the IC50 was > 50 µM (inactive). Turning to `CCOC(=O)c1ccc(N=Cc2c(O)n(C)c(=O)n(C)c2=O)cc1`, the IC50 is > 50 µM (inactive).

Consider `O=c1[nH]c2c(c(O)c1-c1ccccc1)c(=O)n(-c1ccccc1)c(=O)n2-c1ccccc1`, for which the IC50 is > 50 µM (inactive). For `CCn1nc(-c2ccc([N+](=O)[O-])cc2)nc2c(=O)n(C)c(=O)nc1-2`, the half-inhibitory concentration (IC50) is 0.571 µM. With `CCn1nc(-c2ccccc2Cl)nc2c(=O)n(C)c(=O)nc1-2`, the IC50 was 1.55 µM. Next, `CCCOC(=O)c1ccc(NC(=O)c2c(F)c(F)c(F)c(F)c2F)cc1`: > 50 µM (inactive); `CCn1nc(-c2ccc(C(F)(F)F)cc2)nc2c(=O)n(C)c(=O)nc1-2`: 0.552 µM; `COC(=O)c1ccc(N(/N=C2\Sc3ccccc3C2=O)C(C)=O)cc1`: 13.9 µM. As for `CCCCCC(=O)N(CN1C(=O)c2ccccc2C1=O)c1ccc(OCc2ccccc2)cc1`, the IC50 was > 50 µM (inactive). Take `CC(=O)N(/N=C1\Sc2ccccc2C1=O)c1ccccc1Cl`: the IC50 is > 50 µM (inactive). With `CC(=O)N(CN1C(=O)c2ccccc2C1=O)c1ccc(Cl)c(Cl)c1`, the IC50 was > 50 µM (inactive). In the case of `O=c1[nH]c(=O)c2nc(-c3ccc(Cl)cc3)cnc2[nH]1`, the IC50 is > 50 µM (inactive). The figure for `COc1cc(Br)cc(C=C2C(=O)NC(=O)NC2=O)c1O` is > 50 µM (inactive); for `Cn1nc(-c2ccc(C(F)(F)F)cc2)nc2c(=O)n(C)c(=O)nc1-2` it is 0.21 µM and 0.851 µM; for `CCOC(=O)c1ccc(NC(=O)C2CCC(C)CC2)cc1` (configuration not stated) it is > 50 µM (inactive). Turning to `CC(=O)N(/N=C1\Sc2ccccc2C1=O)c1ccccc1C`, the IC50 is 37.4 µM. Regarding `CC(=O)N(CN1C(=O)c2ccccc2C1=O)c1ccc(I)cc1`, the IC50 is > 50 µM (inactive). For `CCOC(=O)c1ccc(NC(=O)c2cncc(Br)c2)cc1`, the IC50 was > 50 µM (inactive).

As for `CC(=O)N(/C=C1\Sc2ccccc2C1=O)c1ccc(C)cc1`, the IC50 was > 50 µM (inactive). Turning to `CCOC(=O)c1ccc(N=Cc2c(O)n(Cc3ccccc3)c(=O)[nH]c2=O)cc1`, the IC50 is > 50 µM (inactive). Turning to `CC(=O)N(CN1C(=O)c2cccc([N+](=O)[O-])c2C1=O)c1ccc2c(c1)oc1ccccc12`, the IC50 is > 50 µM (inactive).

In the case of `CCOC(=O)c1ccc(NC(=O)c2cc3ccccc3oc2=O)cc1`, the IC50 is > 50 µM (inactive). For the molecule `CCN(CC)CCOC(=O)c1ccc(NC(=O)c2cc(OC)c(OC)cc2OC)cc1`, the IC50 was > 50 µM (inactive). `CCCCCC(=O)N(CN1C(=O)c2ccccc2C1=O)c1ccccc1OC`: the IC50 was > 50 µM (inactive). In the case of `CCCOC(=O)c1ccc(NC(=O)c2ccc(C)c(I)c2)cc1`, the IC50 was > 50 µM (inactive). Take `COc1ccc(-c2nnc3[nH]c(=O)n(C)c(=O)c3n2)cc1OC`: the IC50 is > 50 µM (inactive). Next, `CC(=O)N(/N=C1\Sc2ccccc2C1=O)c1ccccc1I`: > 50 µM (inactive); `Cc1ccc(C(=O)CN2C=CC(=C(O)NCc3ccccc3)C=C2)cc1`: > 50 µM (inactive). The figure for `Cc1ccccc1-c1nc2c(=O)n(C)c(=O)nc-2n(C)n1` is 1.68 µM and 4.03 µM; for `CCCCOC(=O)c1ccc(NC(=O)c2cc(OCC)c(OCC)c(OCC)c2)cc1` it is > 50 µM (inactive). `Cc1ccc(-c2nnc3[nH]c(=O)n(C)c(=O)c3n2)cc1`: the IC50 was > 50 µM (inactive). With `Cn1c(=O)[nH]c2nnc(-c3ccc4c(c3)OCO4)nc2c1=O`, the IC50 is > 50 µM (inactive) and 4.91 µM.

As for `O=C1NC(=O)C(=Cc2cc(Cl)c(OCc3ccc(C(=O)O)cc3)c(Cl)c2)C(=O)N1`, the IC50 is > 50 µM (inactive).

Take `CCOC(=O)N1CCN(c2cc3nccnc3cc2F)CC1`: the IC50 was > 50 µM (inactive).

Broadly, the IC50 is the concentration at which inhibition is half-maximal.
